Reference: ChEMBL document CHEMBL1201862, “PubChem BioAssay data set” (2004)
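The compound was tested at five concentrations on cells cultured in 96-well plates, with a 48-hour exposure period. The concentration for 50% growth inhibition is given as GI50.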 The source made the active and inactive calls. No stated cut-off is given here; in the data, active = GI50 up to about 1.1 µM and inactive = higher.

Tests used:
Assay in all cases: DTP human tumour cell line panel, 48 h
HCT-15 = test system: HCT-15
M14 = test system: M14
ACHN = test system: ACHN
HT-29 = test system: HT-29
SF-268 = test system: SF-268
SK-MEL-5 = test system: SK-MEL-5
MCF7 = test system: MCF7
A549 = test system: A549
Hs-578T = test system: Hs-578T
COLO 205 = test system: COLO 205
HL-60 = test system: HL-60
HCT-116 = test system: HCT-116
SK-MEL-2 = test system: SK-MEL-2
SW-620 = test system: SW-620
OVCAR-4 = test system: OVCAR-4
MDA-MB-435 = test system: MDA-MB-435
NCI-H23 = test system: NCI-H23
UO-31 = test system: UO-31
UACC-62 = test system: UACC-62
SF-539 = test system: SF-539

Structure (SMILES)	GI50 (HCT-15) [µM]	GI50 (M14)	GI50 (ACHN)	GI50 (HT-29)	GI50 (SF-268)	GI50 (SK-MEL-5)	GI50 (MCF7)	GI50 (A549)	GI50 (Hs-578T)	GI50 (COLO 205)	GI50 (HL-60)	GI50 (HCT-116)	GI50 (SK-MEL-2)	GI50 (SW-620)	GI50 (OVCAR-4)	GI50 (MDA-MB-435)	GI50 (NCI-H23)	GI50 (UO-31)	GI50 (UACC-62)	GI50 (SF-539)
C[C@@]1(c2ccccc2)O[C@@H]2C[C@H]3[C@@H]4CCC5=CC(=O)C=C[C@]5(C)[C@@]4(F)[C@@H](O)C[C@]3(C)[C@]2(C(=O)CO)O1 [AMCINAFIDE]	17.9	16.1 µM (inactive)	18.1 µM (inactive)	17 µM (inactive)	15.1 µM (inactive)	14.9 µM (inactive)	13.9 µM (inactive)	11.8 µM (inactive)	18.7 µM (inactive)	14.4 µM (inactive)	18.8 µM (inactive)	14.6 µM (inactive)	14.4 µM (inactive)	21.9 µM (inactive)	15 µM (inactive)	18.7 µM (inactive)	18.1 µM (inactive)	18.1 µM (inactive)	16.7 µM (inactive)	–
COP(=O)(OC)/C(=C/c1c[nH]c2ccccc12)C(=O)O	> 100	> 100 µM (inactive)	> 100 µM (inactive)	> 100 µM (inactive)	–	> 100 µM (inactive)	> 100 µM (inactive)	> 100 µM (inactive)	> 100 µM (inactive)	> 100 µM (inactive)	> 100 µM (inactive)	> 100 µM (inactive)	> 100 µM (inactive)	> 100 µM (inactive)	> 100 µM (inactive)	> 100 µM (inactive)	> 100 µM (inactive)	> 100 µM (inactive)	> 100 µM (inactive)	> 100 µM (inactive)
CCOC(=O)c1cc(C2=C(S)N(CC(C)CC)CC2)c(C(=O)CC)[nH]1 (centres undefined)	10.2	–	15.3 µM (inactive)	22.4 µM (inactive)	21.9 µM (inactive)	–	21.3 µM (inactive)	25.1 µM (inactive)	26.9 µM (inactive)	11 µM (inactive)	5.36 µM (inactive)	15.3 µM (inactive)	22.1 µM (inactive)	6.01 µM (inactive)	14.5 µM (inactive)	15.5 µM (inactive)	19.5 µM (inactive)	16.8 µM (inactive)	16.6 µM (inactive)	12 µM (inactive)
Cc1cc(C)nc(NC(=S)Nc2ccccc2Cl)c1	> 100	> 100 µM (inactive)	–	> 100 µM (inactive)	> 100 µM (inactive)	> 100 µM (inactive)	> 100 µM (inactive)	> 100 µM (inactive)	> 100 µM (inactive)	> 100 µM (inactive)	> 100 µM (inactive)	> 100 µM (inactive)	> 100 µM (inactive)	> 100 µM (inactive)	> 100 µM (inactive)	> 100 µM (inactive)	–	> 100 µM (inactive)	> 100 µM (inactive)	> 100 µM (inactive)
CC1(O)Oc2ccc3ccccc3c2C=C1C(N)=O (centres undefined)	53.7	66.4 µM (inactive)	> 100 µM (inactive)	–	71.9 µM (inactive)	58.6 µM (inactive)	> 100 µM (inactive)	–	> 100 µM (inactive)	> 100 µM (inactive)	> 100 µM (inactive)	> 100 µM (inactive)	40.4 µM (inactive)	> 100 µM (inactive)	72.9 µM (inactive)	> 100 µM (inactive)	> 100 µM (inactive)	> 100 µM (inactive)	> 100 µM (inactive)	42.1 µM (inactive)
CCOC(=O)C1(Cc2ccccc2)Cc2cc3c(cc2C1)CCC3	27.7	29.5 µM (inactive)	38.7 µM (inactive)	18.4 µM (inactive)	52.4 µM (inactive)	–	23 µM (inactive)	36.8 µM (inactive)	22.3 µM (inactive)	19.3 µM (inactive)	23.8 µM (inactive)	24.3 µM (inactive)	12.8 µM (inactive)	28.6 µM (inactive)	35.7 µM (inactive)	30.2 µM (inactive)	27 µM (inactive)	40.9 µM (inactive)	30.1 µM (inactive)	39 µM (inactive)
CC1(C)OC2C(O)C(CO)OC2(C(F)F)O1 (centres undefined)	> 100	> 100 µM (inactive)	–	> 100 µM (inactive)	> 100 µM (inactive)	> 85.3 µM (inactive)	> 100 µM (inactive)	> 100 µM (inactive)	> 100 µM (inactive)	> 100 µM (inactive)	> 100 µM (inactive)	> 100 µM (inactive)	> 100 µM (inactive)	> 100 µM (inactive)	> 100 µM (inactive)	> 63.5 µM (inactive)	–	> 31.3 µM (inactive)	> 100 µM (inactive)	> 100 µM (inactive)
